Test results reported in patent publication US8642657B2 (Gruenenthal GmbH, priority 2003, dated 2014).

Columns and labels:
[1] = target: T1, rat VR1 (Rattus norvegicus, UniProt O35433); assay: 45Ca2+-uptake assay in CHO/VR1 cells, antagonism of capsaicin-stimulated uptake; type: cell-based; settings: 45Ca2+ uptake stimulated by 50 nM capsaicin
T1 construct: expressed in transfected cells

[2] = target: T1, rat VR1; assay: [3H]resiniferatoxin (RTX) competition binding assay, VR1-transfected CHO cells
Procedure, shortened: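 Competition with [3H]RTX (50-100 pM) ran 60 min at 37° C using whole VR1-induced CHO cells in BSA-containing DPBS, nonspecific defined by 100 nM cold RTX. After centrifugation, pellet radioactivity counted by scintillation; Hill fits gave Ki and cooperativity.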

[3] = competition with [3H]RTX, rat VR1 in CHO cells, read-out: Ki (nM) Binding Affinity

T1 sequence (O35433 whole entry): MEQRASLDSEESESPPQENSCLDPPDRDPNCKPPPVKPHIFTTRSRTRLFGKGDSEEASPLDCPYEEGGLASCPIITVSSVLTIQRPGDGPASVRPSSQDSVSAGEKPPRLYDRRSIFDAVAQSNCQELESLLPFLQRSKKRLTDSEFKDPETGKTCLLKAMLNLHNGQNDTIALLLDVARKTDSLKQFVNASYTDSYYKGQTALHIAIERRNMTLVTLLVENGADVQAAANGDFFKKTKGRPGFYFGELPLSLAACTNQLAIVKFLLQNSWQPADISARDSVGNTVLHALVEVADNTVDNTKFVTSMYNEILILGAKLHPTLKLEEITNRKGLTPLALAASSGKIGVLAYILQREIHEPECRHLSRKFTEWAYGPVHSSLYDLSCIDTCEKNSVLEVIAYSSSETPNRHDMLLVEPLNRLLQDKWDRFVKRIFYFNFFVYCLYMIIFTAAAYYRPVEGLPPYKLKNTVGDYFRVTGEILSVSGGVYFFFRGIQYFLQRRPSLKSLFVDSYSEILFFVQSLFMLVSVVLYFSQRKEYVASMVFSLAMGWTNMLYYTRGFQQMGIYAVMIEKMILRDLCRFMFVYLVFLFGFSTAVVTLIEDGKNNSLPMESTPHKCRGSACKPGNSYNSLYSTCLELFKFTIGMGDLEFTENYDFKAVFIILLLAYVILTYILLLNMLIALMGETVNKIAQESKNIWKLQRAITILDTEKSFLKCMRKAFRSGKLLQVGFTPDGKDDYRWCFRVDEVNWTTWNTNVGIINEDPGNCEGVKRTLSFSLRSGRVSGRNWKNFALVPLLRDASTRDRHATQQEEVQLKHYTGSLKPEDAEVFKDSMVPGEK

Row | SMILES | melting point [°C] | Ki [1] [nM] | Ki [2] [nM] | Ki [2, 3] [nM]
1 | Cc1ccc(CCCNC(=O)C(C)(C)c2ccc(NS(C)(=O)=O)cc2)cc1C [9-4, N-[3-(3,4-Dimethylphenyl)propyl]-2-[4-(methylsulfonylamino)phenyl]-2-methylpropionamide] | 138 to 139 | 573 | 1700 | 
2 | C[C@H](C(=O)NC[C@H](COC(=O)C(C)(C)C)Cc1ccccc1)c1ccc(NS(C)(=O)=O)c(F)c1 [6-5, N-[(2R)-2-Benzyl-3-(pivaloyloxy)propyl]-(2S)-2-[3-fluoro-4-(methylsulfonylamino)phenyl]propionamide] | 40 to 42 | 8.55 |  | 43.4
3 | Cc1ccc(C=CC(=O)NC(C)c2ccc(NS(C)(=O)=O)c(F)c2)cc1C (stereo not drawn) [24-5, N-{1-[3-Fluoro-4-(methylsulfonylamino)phenyl]ethyl}-3-(3,4-dimethylphenyl)-2-propenamide] | 212 to 213 | 1350 | 2520 | 
4 | C[C@@H](C(=O)NC[C@H](COC(=O)C(C)(C)C)Cc1ccc(C(C)(C)C)cc1)c1ccc(NS(C)(=O)=O)c(F)c1 [6-12, N-[(2R)-2-(4-t-Butylbenzyl)-3-(pivaloyloxy)propyl]-(2R)-2-[3-fluoro-4-(methylsulfonylamino)phenyl]propionamide] | 43 to 45 | 30.3 |  | 53
5 | CC(C(=O)NCc1ccc(Cl)cc1)c1ccc(NS(C)(=O)=O)cc1 (stereo not drawn) [2-8, N-(4-Chlorobenzyl)-2-[4-(methylsulfonylamino)phenyl]propionamide] | 164 | 1090 | 3500 | 
6 | C[C@@H](NC(=S)N[C@@H](COC(=O)C(C)(C)C)Cc1ccccc1)c1ccc(NS(C)(=O)=O)cc1 [19-13, N-[(2R)-3-phenyl-1-pivaloyloxy-2-propyl]-N′-[(R)-α-methyl-4-(methylsulfonylamino)benzy]thiourea] | 59 to 61 | 193 | 420 | 
7 | CC(C(=O)NCC(COC(=O)C(C)(C)C)Cc1ccc(C(C)(C)C)cc1)c1ccc(NS(C)(=O)=O)c(F)c1 (stereo not drawn) [5-4, 2-[3-Fluoro-4-(methylsulfonylamino)phenyl]-N-[2-(4-tert-butylbenzyl)-3-pivaloyloxypropyl]propionamide] | 113 to 115 | 3.24 |  | 13.6
8 | CC(C(=O)NCc1ccc(C(C)(C)C)cc1)c1ccc(NS(C)(=O)=O)c(Cl)c1 (stereo not drawn) [1-52, N-(4-tert-Butylbenzyl)-2-[3-chloro-4-(methylsulfonylamino)phenyl]propionamide] | 126 to 129 | 29.5 |  | 30.7
9 | C[C@H](C(=O)NC[C@H](COC(=O)C(C)(C)C)Cc1ccc(C(C)(C)C)cc1)c1ccc(NS(C)(=O)=O)c(F)c1 [6-9, N-[(2R)-2-(4-t-Butylbenzyl)-3-(pivaloyloxy)propyl]-(2S)-2-[3-fluoro-4-(methylsulfonylamino)phenyl]propionamide] | 44 to 46 | 0.58 | 4.24 | 
10 | CC(C(=O)NCC(COC(=O)C(C)(C)C)Cc1ccc(C(C)(C)C)cc1)c1ccc(NS(C)(=O)=O)c(Cl)c1 (stereo not drawn) [5-8, N-[2-(4-tert-Butylbenzyl)-3-pivaloyloxypropyl]-2-[3-chloro-4-(methylsulfonylamino)phenyl]propionamide] | 142 to 144 | 12.3 |  | 3.62
11 | CC(NC(=S)NCC(COC(=O)C(C)(C)C)Cc1ccc(C(C)(C)C)cc1)c1ccc(NS(C)(=O)=O)c(F)c1 (stereo not drawn) [18-14, N-[2-(4-tert-Butylbenzyl)-3-(pivaloyloxy)propyl]-N′-{1-[3-fluoro-4-(methylsulfonylamino)phenyl]ethyl}thiourea] | 78 | 9.34 | 37 | 
12 | CC(C(=O)NCc1ccc(Cl)cc1)c1ccc(NS(C)(=O)=O)c(Br)c1 (stereo not drawn) [4-3, N-(4-Chlorobenzyl)-2-[3-bromo-4-(methylsulfonylamino)phenyl]propionamide] | 147 | 296 | 541 | 
13 | Cc1ccc(CC(CNC(=O)C2(c3ccc(NS(C)(=O)=O)cc3)CC2)COC(=O)C(C)(C)C)cc1C (stereo not drawn) [12-1, N-[2-(3,4-Dimethylbenzyl)-3-pivaloyloxypropyl]-1-[4-(methylsulfonylamino)phenyl]cyclopropanecarboxamide] | 54 to 56 | 197 |  | 396
14 | C[C@H](C(=O)NC[C@H](COC(=O)C(C)(C)C)Cc1ccc(C(C)(C)C)cc1)c1ccc(NS(C)(=O)=O)c(Cl)c1 [6-13, N-[(2R)-2-(4-t-Butylbenzyl)-3-(pivaloyloxy)propyl]-(2S)-2-[3-chloro-4-(methylsulfonylamino)phenyl]propionamide] | 61 to 63 | 5.23 |  | 1.83
15 | CC(NC(=O)C=Cc1ccc(Cl)cc1)c1ccc(NS(C)(=O)=O)c(F)c1 (stereo not drawn) [24-7, N-{1-[3-Fluoro-4-(methylsulfonylamino)phenyl]ethyl}-3-(4-chlorophenyl)-2-propenamide] | 219 to 221 | 938 | 773 | 
16 | CC(C(=O)NCc1ccc(C(C)(C)C)cc1)c1ccc(NS(C)(=O)=O)c(Br)c1 (stereo not drawn) [1-53, N-(4-tert-Butylbenzyl)-2-[3-bromo-4-(methylsulfonylamino)phenyl]propionamide] | 66 to 67 | 24.9 |  | 7.41
17 | CC(C)(C)c1ccc(CNC(=O)C2(c3ccc(NS(C)(=O)=O)cc3)CC2)cc1 [12-7, N-(4-tert-Butylbenzyl)-1-[4-(methylsulfonylamino)phenyl]cyclopropanecarboxamide] | 200 to 203 | 1760 |  | 608
18 | C[C@H](C(=O)N[C@@H](COC(=O)C(C)(C)C)Cc1ccccc1)c1ccc(NS(C)(=O)=O)c(F)c1 [6-1, N—[(R)-1-Benzyl-2-(pivaloyloxy)ethyl]-(S)-2-[3-fluoro-4-(methylsulfonylamino)phenyl]propionamide] | 115 | 1470 |  | 12800
19 | CC(C(=O)NCCC(c1ccccc1)c1ccccc1)c1ccc(NS(C)(=O)=O)c(F)c1 (stereo not drawn) [4-24, N-(3,3-Diphenylpropyl)-2-[3-fluoro-4-(methylsulfonylamino)phenyl]propionamide] | 66 to 68 | 36.6 | 128 | 
20 | CC(C)(C)c1ccc(CNC(=S)NC(c2ccccc2)c2ccc(NS(C)(=O)=O)c(F)c2)cc1 (stereo not drawn) [20-14] | 191 | 861 |  | 100
21 | COc1cc(C(C)(C)C(=O)NCCCc2ccc(C)c(C)c2)ccc1NS(C)(=O)=O [9-6, N-[3-(3,4-Dimethylphenyl)propyl]-2-[3-methoxy-4-(methylsulfonylamino)phenyl]-2-methylpropionamide] | 93 to 95 | 366 | 838 | 
22 | C[C@@H](C(=O)NC[C@@H](COC(=O)C(C)(C)C)Cc1ccc(C(C)(C)C)cc1)c1ccc(NS(C)(=O)=O)c(F)c1 [6-11, N-[(2S)-2-(4-t-Butylbenzyl)-3-(pivaloyloxy)propyl]-(2R)-2-[3-fluoro-4-(methylsulfonylamino)phenyl]propionamide] | 44 to 46 | 142 |  | 63.8
23 | CC(NC(=O)NCc1ccc(C(C)(C)C)cc1)c1ccc(NS(C)(=O)=O)cc1 (stereo not drawn) [23-1, N-(4-t-Butylbenzyl)-N′-{1-[4-(methylsulfonylamino)phenyl]ethyl}urea] | 95 to 98 | 544 | 1190 | 
24 | CC(C(=O)NCc1ccc(Cl)cc1)c1ccc(NS(C)(=O)=O)c(Cl)c1 (stereo not drawn) [4-2, N-(4-Chlorobenzyl)-2-[3-chloro-4-(methylsulfonylamino)phenyl]propionamide] | 134 to 135 | 447 | 729 | 
25 | CC(C(=O)NCCc1ccc(C(C)(C)C)cc1)c1ccc(NS(C)(=O)=O)c(F)c1 (stereo not drawn) [4-14, N-[2-(4-t-Butylphenyl)ethyl]-2-[3-fluoro-4-(methylsulfonylamino)phenyl]propionamide] | 124 to 126 | 42.6 |  | 553
26 | Cc1ccc(CC(CNC(=S)NC(C)c2ccc(NS(C)(=O)=O)cc2)COC(=O)C(C)(C)C)cc1C (stereo not drawn) [18-5, N-[2-(3,4-Dimethylbenzyl)-3-(pivaloyloxy)propyl]-N′-{1-[4-(methylsulfonylamino)phenyl]ethyl}thiourea] | 77 | 25.9 | 37.2 | 
27 | Cc1ccc(C(C)CC(=O)NC(C)c2ccc(NS(C)(=O)=O)c(F)c2)cc1C (stereo not drawn) [24-8, N-{1-[3-Fluoro-4-(methylsulfonylamino)phenyl]ethyl}-3-(3,4-dimethylphenyl)butanamide] | 152 to 154 | 988 | 3530 | 
28 | CC(C(=O)NCc1ccc(C(C)(C)C)cc1)c1ccc(NS(C)(=O)=O)c(F)c1 (stereo not drawn) [1-51, N-(4-tert-Butylbenzyl)-2-[3-fluoro-4-(methylsulfonylamino)phenyl]propionamide] | 52 to 54 | 5.47 | 58.4 | 
29 | CC(NC(=S)NCC(COC(=O)C(C)(C)C)Cc1ccc(C(C)(C)C)cc1)c1ccc(NS(C)(=O)=O)cc1 (stereo not drawn) [18-9, N-[2-(4-tert-Butylbenzyl)-3-(pivaloyloxy)propyl]-N′-{1-[4-(methylsulfonylamino)phenyl]ethyl}thiourea] | 87 | 28.7 | 42.7 | 
30 | C[C@H](C(=O)NC[C@@H](COC(=O)C(C)(C)C)Cc1ccc(C(C)(C)C)cc1)c1ccc(NS(C)(=O)=O)c(Cl)c1 [6-14, N-[(2S)-2-(4-t-Butylbenzyl)-3-(pivaloyloxy)propyl]-(2S)-2-[3-chloro-4-(methylsulfonylamino)phenyl]propionamide] | 55 to 57 | 12.1 |  | 3.29
